Where a name gives a salt, the structure may show the parent alone.
Experiments:
[1] = Steady state flux across human skin (iontophoretic); format: in vitro ADME
Experimental: Another useful factor for in vitro assessment of skin permeability of a target drug or drug complex is steady state flux. Typically, when performing a kinetic analysis of the skin-penetrating ability of a target compound through a membrane, such as skin, such an analysis includes an assessment of the lag time and the steady state flux or permeation rate. The ideal membrane for such determinations is human skin.
Steady state flux across human skin was determined for three distinct testosterone/chemical modifier complexes, as shown in FIG. 5 and in Table 4. In FIG. 5, iontophoretic flux rates over time are plotted for testosterone-17β-stachydrine ester, chloride salt [2.9], (closed circles), testosterone-17β-(L-carnitine ethyl ester) carbonate, iodide salt [1.7] (solid squares), and testosterone-17β-choline carbonate, bromide salt [1.4] (open circles). […] Steady state flux values in FIG. 5 are expressed as testosterone equivalents in units of μg/cm^2 h.
Iontophoretically-induced steady state flux across human skin was determined for three distinct testosterone/chemical modifier complexes, testosterone-17β-stachydrine ester, chloride salt [2.9], testosterone-17β-(L-carnitine ethyl ester) carbonate, iodide salt [1.7], and testosterone-17β-choline carbonate, bromide salt [1.4]. The in vitro skin flux experiments were carried out in a similar fashion to those described above, with the exception that human skin was used as the membrane.
Steady state flux values provide an indication of the total amount of drug (or drug complex) that can penetrate the skin, under a given set of experimental conditions.

[2] = Water solubility (H2O sol); details: H2O sol
in vitro [3] = format: in vitro ADME; details: 37° C.; for half-life: human, serum
Experimental: The hydrolytic activity of the sterol prodrug may be evaluated by studies of the chemical or enzymatic conversion of the prodrug to the unmodified parent compound, as described in Example 26.
Generally, the sterol/chemical modifier complex is dissolved in a minimum amount of a suitable solvent, such as ethanol, and the resulting solution is added to a sample of human serum. Following incubation, aliquots are then removed at various time points and analyzed to determine the extent of hydrolysis. Table I herein lists the representative serum half-lives of a number of testosterone prodrugs according to the present invention.
The rates of conversion are readily determined, for example by spectrophotometric methods or by gas-liquid or high performance liquid chromatography. Half-lives and other kinetic parameters may then be calculated using standard techniques.
Determination of Testosterone Prodrug Hydrolysis in Serum
Stock solutions (6 mM) of the testosterone prodrugs were prepared in ethanol (dissolution was accomplished by vortexing, sonication, or warming at 37° C., as needed). If required for dissolution, one drop of a co-solvent such as dimethylsulfoxide, dimethylformamide or methanol was added. (Acetonitrile is undesirable because it deactivates the serum enzymes).
HPLC separation methods were established for each study by dilution of the above stock solutions (6 μl) in acetonitrile (1 ml) to form 36 μM solutions. Samples (10 μl) were injected onto a Nucleosil 5C8 column (250×4 mm ID) fitted with an additional guard column (11×4 mm ID) and eluted with a mobile phase of approximately 65% HPLC grade water and 35% trifluoroacetic acid in acetonitrile (0.1% TFA in acetonitrile). Exact proportions of the mobile phase eluents were adjusted in each case to give optimum separation and run times.
Freshly defrosted human serum (3 ml, Sigma) was warmed at 37° C. for five minutes and then the testosterone prodrug stock solution (60 μl) was added with vortexing. […] The aliquots were added to 800 μl of 2% zinc sulfate solution in a 1.5 ml disposable microcentrifuge tube, vortexed immediately and centrifuged at 14,000 RPM for 3 minutes. The supernatants (10 μl) were injected onto the HPLC and peak areas used to determine the percent of parent drug formed or percent of prodrug remaining. Serum blanks were prepared similarly by addition of serum to the zinc sulfate solution, followed by centrifugation. Initial (time=0) samples were prepared by adding serum to the zinc sulfate solution, followed by addition of the complex and separation by centrifugation. The time=0 samples, as well as the original stock solutions, were also used to assess the stability of the complex in the absence of enzyme. Half-lives were determined using the following equation : […]
and plotting time (x ordinate) versus the natural logarithm of percent remaining prodrug (y ordinate) to obtain the slope (m) and the y intercept (b).

in vitro [4] = format: cell-based, human; details: human, dermal fibroblasts, MTT; for CC50 at 2 h: IC50 2 h (cytotoxicity), 2 h incubation; for CC50 at 16 h: IC50 16 h (cytotoxicity), 16 h incubation
Experimental: As discussed above, the chemical modifier, when present in the subject in its free or released form, and in appropriately administered amounts, should preferably be non-toxic. Additionally, any further in vivo degradation products of the chemical modifier should be non-toxic, as well. Table 2 provides in vitro relative cytotoxicity data for a number of testosterone/chemical modifier complexes, prepared in accordance with the invention. The cytotoxicity assessment was carried out by examining the viability of human dermal fibroblasts in the presence of a number of testosterone/chemical modifier complexes in accordance with the present invention. Details of the experimental protocol are summarized in Example 27.
The viability of human dermal fibroblasts in the presence of the 17-hydroxy sterol/chemical modifier compounds was assayed using MTT (3-[4,5-dimethylthiazol-2-yl]-2,5-diphenyltetrazolium bromide) reduction to formazan by mitochondrial enzymes as an indicator of cytotoxicity (Swisher, et al.). Confluent fibroblast cells were incubated for 2 or 16 hours in the presence of increasing concentrations of drug complex. At the end of the incubation period, medium was replaced for 4 hours by medium containing the tetrazolium salt, MTT. Metabolism of MTT to a blue formazan was quantitated by spectrophotometry at 540 nm.

[5] = format: in vitro ADME, mouse; details: for Enhancement in in vitro electrotransport skin flux compared to testosterone: hairless mouse skin, vs unmodified testosterone, 'nearly 10-fold enhancement or greater'; for Flux, active electrotransport (ET): active cells (ETm), 100 uA/cm^2, 6 h
Experimental: In vitro electrotransport of testosterone/chemical modifier complexes across hairless mouse skin was evaluated as described in Example 28. The experiments were conducted using modified Valia-Chien cells having 1.0 ml donor and 2.5 ml receptor cells. Anodic transport was carried out using a silver wire-based salt bridge in the donor compartment and a silver chloride cathode in the receptor. Cathodic transport was effected by reversing the electrode configuration. The cells were connected in series and a constant current and temperature were supplied to each cell.
After a predetermined period of time (6 h), aliquots were removed from the receiver phase for immediate analysis by HPLC to determine cumulative flux.
The electrotransport of testosterone/chemical modifier complexes was achieved using modified Valia-Chien cells (1.0 ml donor and 2.5 ml receptor cells). Full thickness, hairless mouse skin (Charles River Labs, Wilmington, Mass.) was soaked for one hour in phosphate buffered saline (PBS, pH=7.4) before placing between each compartment (dermal side of skin facing toward receptor). One passive (P1:data) and two or more (ETm :data) active cells were used to screen each compound.
A 10 mM (1 ml) aqueous solution of testosterone drug/prodrug was placed in the donor (unstirred) compartment and the receptor (stirred) was filled with 2.5 ml of PBS. In order to check for egress due to e.g. damaged skin, a zero hour sample of receptor ([…]) was taken one half hour after the drug solution was placed in the donor compartment. Replacement fluid of equal sample volume was added to the receptor compartment immediately after samples were taken.
Anodic electrotransport was achieved using a silver wire (immersed in a polyvinylalcohol-based salt bridge to minimize junction potential) in the donor compartment and a AgCl cathode in the receptor. […] The electrotransport cells were connected in series and constant current (100 uA/cm^2, […] for a skin area of 0.64 cm^2) and temperature (32° C.) were supplied to each cell. After six hours of active/passive transport, aliquots (200 ul) of the receptor were sampled and immediately analyzed by HPLC.
A standard plot of peak area and concentration for each compound was constructed using HPLC. The peak areas of the samples were determined and the concentrations calculated using the standard data. Cumulative flux was calculated using Quickbasic and reported in nmol/cm^2 /hr.

[6] = murine skin, 10 mM donor, 32° C.

Row | SMILES | Steady State Flux ([1]; iontophoresis (Table 4)) [nmole/cm^2 /h] | solubility [2] [mg/mL] | half-life (in vitro [3]; HPLC) [h] | CC50 at 2 h (in vitro [4]) [µM] | CC50 at 16 h (in vitro [4]) [µM] | Enhancement in in vitro electrotransport skin flux compared to testosterone [5] [fold] | Flux, active electrotransport (ET) [5, 6] [nmol/cm^2 /hr] | Flux, passive (P) ([5]; murine skin, passive cells (P), 10 mM donor, 6 h, 32° C.) [nmol/cm^2 /hr] | Degradation (Degradation (%/d)) [%/d] | half-life (in vitro [3]; footnote 1: prodrug remaining, no testosterone formed) [h] | Steady State Flux ([1]; iontophoresis) [nmol/cm^2 /h] | Steady state flux compared with the other two complexes (1.4, 1.7) ([1]; iontophoresis) | Serum half-life (in vitro [3]; human serum, HPLC, hydrochloride salt) [h]
1 | C[C@]12CC[C@H]3[C@@H](CCC4=CC(=O)CC[C@@]43C)[C@@H]1CC[C@@H]2OC(=O)OCC[N+](C)(C)C [Code 1.4, testosterone-17β-choline carbonate, bromide salt] | 68 ± 4 | 4 | 0.4 | 966 | 929 | ≥ 10 | 20.8 ± 21.0 | 4.0 ± 0.8 | 0 | – | – | – | –
2 | C[C@]12CC[C@H]3[C@@H](CCC4=CC(=O)CC[C@@]43C)[C@@H]1CC[C@@H]2OC(=O)CCCC[N+](C)(C)C [Code 2.4] | – | 18 | ~720 | 609 | 568 | – | 2.7 ± 1.1 | – | 0 | – | – | – | –
3 | C[C@]12CC[C@H]3[C@@H](CCC4=CC(=O)CC[C@@]43C)[C@@H]1CC[C@@H]2OC(=O)CC[N+](C)(C)C [Code 2.5, testosterone-17β-(N,N,N-trimethyl-β-alaninyl ester), bromide salt] | – | 0.3 | – | > 600 | 329 | ≥ 10 | 18.0 ± 2.4 | – | 0 | ~0.167 | – | – | –
4 | CC(=O)O[C@@H]1C[C@@H](C(=O)O[C@H]2CC[C@H]3[C@@H]4CCC5=CC(=O)CC[C@]5(C)[C@H]4CC[C@]23C)[N+](C)(C)C1 [Code 2.6, testosterone-17β-[(O-acetyl)-betonicinyl ester], chloride salt] | – | 21 | 8.2 | 733 | 271 | – | 0 | – | 0 | – | – | – | –
5 | C[n+]1cccc(C(=O)O[C@H]2CC[C@H]3[C@@H]4CCC5=CC(=O)CC[C@]5(C)[C@H]4CC[C@]23C)c1 [Code 2.8] | – | 0.8 | 25.5 | 598 | 492 | – | 3.1 ± 1.2 | – | 0 | – | – | – | –
6 | C[C@]12CC[C@H]3[C@@H](CCC4=CC(=O)CC[C@@]43C)[C@@H]1CC[C@@H]2OC(=O)[C@@H]1CCC[N+]1(C)C [Code 2.9, testosterone-17β-stachydrine ester, chloride salt] | 184 ± 30 | 22 | 13.7 | 2130 | 750 | – | – | – | 0 | – | 184 | greater than twice that of either of the other two testosterone/chemical modifier complexes | –
7 | C[C@]12CC[C@H]3[C@@H](CCC4=CC(=O)CC[C@@]43C)[C@@H]1CC[C@@H]2OC(=O)OCOC(=O)CCCCC[N+](C)(C)C [Code 3.2, testosterone-17β-[6-(N,N,N-trimethylammonio)hexanoyloxy-methyl]carbonate iodide salt] | – | 20 | 0.217 | 615 | 406 | – | 4.8 ± 0.6 | – | 77 | – | – | – | –
8 | C[C@]12CC[C@H]3[C@@H](CCC4=CC(=O)CC[C@@]43C)[C@@H]1CC[C@@H]2OC(=O)Oc1ccc(CC[N+](C)(C)C)cc1 [Code 3.4, testosterone-17β-candicine carbonate, iodide salt] | – | 0.1 | 5.8 | 544 | 44.6 | – | 0 | – | 1 | – | – | – | –
9 | COC(=O)[C@H](COC(=O)O[C@H]1CC[C@H]2[C@@H]3CCC4=CC(=O)CC[C@]4(C)[C@H]3CC[C@]12C)N(C)C [Code 3.6, testosterone-17β-(N,N-dimethyl-L-serine methyl ester) carbonate, hydrochloride salt] | – | 20 | – | 224 | 157 | – | 6.8 ± 0.3 | – | 3.8 | – | – | – | 0.75
10 | C[C@]12CC[C@H]3[C@@H](CCC4=CC(=O)CC[C@@]43C)[C@@H]1CC[C@@H]2OC(=O)C=CC[N+](C)(C)C [Code 3.8, testosterone-17β-[(4-N,N,N-trimethylammonio) crotonate], chloride salt] | – | 21 | 122 | 2290 | 583 | ≥ 10 | 9.4 ± 1.2 | – | 0 | – | – | – | –
